# Results: publication PMC5997768 (2018)
# Test system: rats with CCI
# Settings: rat, in vivo, iv
structure (smiles),measurement,value
"C=CC[N+]1(C)CC[C@]23c4c5ccc(O)c4O[C@H]2C(=O)CC[C@@]3(O)[C@H]1C5 (some centres unmarked) [NLXM, naloxone methiodide]",Effect on FF3-induced analgesia (PPT) in ipsilateral limbs,abolished
same,Effect on PPT in contralateral paws,No changes were observed
